Assay results: patent US20090088377A1, “CYSTEIC ACID DERIVATIVES OF ANTI-VIRAL PEPTIDES” (priority 2007, published 2009)

Columns and labels:
[1] = tested on: HIV-1 IIIB; experiment: Anti-HIV efficacy evaluation in fresh human PBMCs (albumin conjugates vs original peptides); format: cell-based; conditions: NA = IC50 not achieved
Method: HIV-1 IIIB was obtained through the AIDS Research and Reference Reagent Program, Division of AIDS, NIAID, NIH courtesy of Dr. Robert C. […] Fresh human peripheral blood mononuclear cells (PBMCs), seronegative for HIV and HBV, were isolated from blood of screened donors (Biological Specialty Corporation; Colmar, Pa.) using Lymphocyte Separation Medium (LSM; Cellgro® by Mediatech, Inc.; density 1.078+/−0.002 g/ml) following the manufacturer's instructions. Cells were stimulated by incubation in 4 μg/mL Phytohemagglutinin (PHA; Sigma) for 48-72 hours. Mitogenic stimulation was maintained by the addition of 20 U/mL recombinant human IL-2 (R&D Systems, Inc) to the culture medium. PHA-stimulated PBMCs from at least two donors were pooled, diluted in fresh medium and added to 96-well plates at 5×10^4 cells/well. Cells were infected (final MOI≅0.1) in the presence of 9 different concentrations of test compounds (triplicate wells/concentration) and incubated for 7 days. […] Following removal of supernatant samples, compound cytotoxicity was measured by the addition of 3-(4,5-dimethylthiazol-2-yl)-5-(3-carboxymethoxyphenyl)-2-(4-sulfophenyl)-2H-tetrazolium (MTS; CellTiter 96 Reagent, Promega) following the manufacturer's instructions. […] AZT (nucleoside reverse transcriptase inhibitor) was used as the assay control compound.

[2] = target: HIV-1 transmembrane glycoprotein gp41 (strain HIV-1 IIIB) (HIV-1 strain IIIB) (UniProt P04578); experiment: cell-based or functional assay
[3] = tested on: RSV; conditions: RSV-infected and uninfected Hep-2 cells; cited from earlier work
[4] = tested on: HPIV-3; conditions: HPIV-3-infected Hep2 cells and uninfected CV-1W cells; cited from earlier work
[5] = tested on: NL4-3 with DIV (G36D) mutation in gp41; conditions: NL4-3, in vitro; cited from earlier work
[6] = HIV-1 IIIB in PHA-stimulated PBMCs, 7 days

Cc1cn([C@H]2C[C@H](N=[N+]=[N-])[C@@H](CO)O2)c(=O)[nH]c1=O [AZT]
IC50 [1, 6]: 2.9 nM
IC90 [1, 6]: 26.9 nM
Selectivity Index ([1]; from TC50 (MTS) and IC50 in PBMCs): >346

C34 peptide
IC50 (50% inhibition of virus replication), HIV-1 IIIB in PBMC [2]: 0.6 nM

IALLSTNKAVVSLSNGVSVLTSKVLDLKNYIDK [SEQ ID NO:24]
Concentration inhibiting fusion and syncytia formation [3]: less than 50 μg/ml

NSVALDPIDISIELNKAKSDLEESKEWIRRSNQKL [SEQ ID NO:27]
Concentration inhibiting fusion and syncytia formation [4]: less than 1 μg/ml

T-20 (DP-178, enfuvirtide, Fuzeon) (peptide)
IC50 (50% inhibition of virus replication), HIV-1 IIIB in PBMC [2]: 2.2 nM
IC90 (90% inhibition of virus replication), HIV-1 IIIB in PBMC [2]: 9.5 nM

enfuvirtide
Resistance conferred by the DIV (G36D) mutation in gp41 [5]: 8 fold
